Results published in ChEMBL document CHEMBL1201862, “PubChem BioAssay data set” (2004).
Activity calls are given as the source filed them.

How the values were obtained:
[1] = target: T1, High affinity choline transporter 1 (Homo sapiens, UniProt Q9GZV3); assay: CHT inhibitors, dose response, cell-based, 5-point CRC, membrane potential dye (AID 504840); type: functional
T1 sequence (Q9GZV3 whole entry): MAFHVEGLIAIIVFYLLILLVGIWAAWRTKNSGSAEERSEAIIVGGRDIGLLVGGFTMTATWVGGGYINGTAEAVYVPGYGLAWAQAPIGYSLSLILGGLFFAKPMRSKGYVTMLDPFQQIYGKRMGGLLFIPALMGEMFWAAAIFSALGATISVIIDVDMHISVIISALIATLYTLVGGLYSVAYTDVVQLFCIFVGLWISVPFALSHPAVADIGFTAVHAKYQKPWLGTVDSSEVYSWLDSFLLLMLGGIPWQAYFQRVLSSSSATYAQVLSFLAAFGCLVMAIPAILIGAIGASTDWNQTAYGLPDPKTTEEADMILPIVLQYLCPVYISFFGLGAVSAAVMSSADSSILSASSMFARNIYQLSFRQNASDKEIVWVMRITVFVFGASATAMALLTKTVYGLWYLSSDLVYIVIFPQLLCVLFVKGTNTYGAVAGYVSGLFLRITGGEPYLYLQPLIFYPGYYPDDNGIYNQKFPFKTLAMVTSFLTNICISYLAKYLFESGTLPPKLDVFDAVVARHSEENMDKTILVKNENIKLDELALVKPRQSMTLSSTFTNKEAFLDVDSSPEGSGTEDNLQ

[2] = target: T2, Calpain-2 catalytic subunit (Sus scrofa, UniProt P43367); assay: pig calpain II inhibitor potency, dose response, biochemical, fluorogenic peptide substrate (AID 1420); type: functional
T2 sequence (P43367 whole entry): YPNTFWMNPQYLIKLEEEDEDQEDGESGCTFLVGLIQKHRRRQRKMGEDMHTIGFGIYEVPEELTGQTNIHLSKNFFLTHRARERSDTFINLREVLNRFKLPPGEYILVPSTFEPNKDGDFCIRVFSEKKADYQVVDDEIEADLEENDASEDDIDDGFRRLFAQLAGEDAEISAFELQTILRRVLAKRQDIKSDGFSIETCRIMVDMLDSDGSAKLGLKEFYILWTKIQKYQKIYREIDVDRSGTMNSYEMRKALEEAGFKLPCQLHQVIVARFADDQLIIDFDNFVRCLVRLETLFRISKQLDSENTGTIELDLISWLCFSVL

[3] = target: T1, High affinity choline transporter 1; assay: CHT inhibitors, dose response, cell-based, 10-point CRC, membrane potential dye (AID 588401); type: functional;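 further: membrane potential dye fluorescence of choline-evoked depolarization via CHT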
BJ [4] = assay: cells; type: functional, cell-based; conditions: Homo sapiens
BJ [5] = assay: cytotoxicity toward BJ-TERT-LT-ST fibroblasts, dose response, cell-based, RAS-independent, luminescence (AID 1935); type: functional; conditions: Homo sapiens;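 further: BJ fibroblasts immortalized with TERT plus LT and ST oncogenes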
[6] = nonselective inhibitors of cellular cAMP signaling, dose response, counter-screen for MC4R biased antagonist project, cell-based, TR-FRET cAMP detection (AID 602305); type: functional;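 further: U2OS cells stimulated with forskolin near its EC80 as the cAMP inducer; potency is for inhibition of forskolin-stimulated cAMP signaling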
Melanocortin receptor 4 = Melanocortin receptor 4 (Homo sapiens, UniProt P32245); assay: MC4R antagonist potency on cAMP, dose response, cell-based, TR-FRET, biased antagonists (AID 602298); type: functional;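 further: antagonist potency against agonist-stimulated cAMP production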
[7] = MC4R antagonists, dose response, counter-screen for LGR2 antagonist project, cell-based, plate reader, cherry pick (AID 743444); type: functional;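 further: transfected HEK 293 cells stimulated with alpha-MSH peptide; potency of inhibitors of the alpha-MSH evoked signal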
BJ [8] = assay: cytotoxicity toward BJ-TERT fibroblasts, dose response, cell-based, RAS-independent, luminescence (AID 1933); type: functional; conditions: Homo sapiens
[9] = inhibitors of PGC1a acetylation in cells, dose response, cell-based, cherry-picked samples (AID 720514); type: functional;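 further: potency may reflect raised or lowered acetylation signal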
[10] = Luminescence Cell-Based Dose Response HTS to Identify Inhibitors of 5'UTR Stem-Loop Driven Prion Protein mRNA Translation in H4 Neuroglioblastoma Cells. [Related pubchem assays: 1827 (Project Summary), 1813 (Primary HTS)]; type: functional
[11] = cytotoxicity toward DRD oncogenic fibroblasts, dose response, cell-based, non-viral oncogenic, luminescence (AID 1934); type: functional; conditions: Homo sapiens
[12] = inhibitors of SNCA 5'UTR-driven reporter translation, confirmation, H4 neuroglioma cells, luminescence (AID 1988); type: functional, cell-based
[13] = cytotoxicity in KRAS-transformed pancreatic duct cells, primary screen, cell-based, fluorescence, HTS (AID 431); type: functional; conditions: Homo sapiens;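 further: cell line used: HPDE-C7K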
[14] = inhibitors of firefly luciferase expression or activity, dose response, H4 neuroglioma cells, luminescence (AID 1990); type: functional, cell-based
[15] = LGR2 antagonists, dose response, cell-based, HEK293, CRE-luciferase reporter, cherry pick, set 2 (AID 743343); type: functional;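 further: transfected cells were stimulated with diluted bursicon conditioned medium after compound addition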
[16] = HepG2 cell cytotoxicity, dose response, cytotoxicity control, plate reader, cherry-pick, antagonist series (AID 743416); type: functional, cell-based
[17] = A549 cell cytotoxicity, dose response, cytotoxicity control, plate reader, cherry-pick, antagonist series (AID 743412); type: functional, cell-based
[18] = cytotoxicity in HPDE-C7 cells, cell-based, fluorescence, HTS (AID 430); type: functional; conditions: Homo sapiens
[19] = HEK293 cell cytotoxicity, dose response, cytotoxicity control, plate reader, cherry-picked samples (AID 743446); type: functional, cell-based
[20] = target: Dual specificity tyrosine-phosphorylation-regulated kinase 1A (Homo sapiens, UniProt Q13627); type: functional;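 further: measured against DYRK1A as one member of a broad kinome profiling panel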
[21] = target: Serine/threonine-protein kinase D2 (Homo sapiens, UniProt Q9BZL6); type: functional;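 further: measured against PRKD2 as one member of a kinome-wide kinase profiling panel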
[22] = target: Dual specificity protein kinase CLK2 (Homo sapiens, UniProt P49760); type: functional
[23] = target: Serine/threonine-protein kinase D3 (Homo sapiens, UniProt O94806); type: functional;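 further: determined within a kinase panel screen, with PRKCN as the panel member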
[24] = target: Serine/threonine-protein kinase pim-2 (Homo sapiens, UniProt Q9P1W9); type: functional;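 further: value comes from a broad kinase panel profiling study in which PIM2 was one of the panel members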
Chain of Serine/threonine-protein kinase pim-2 (Q9P1W9 whole entry): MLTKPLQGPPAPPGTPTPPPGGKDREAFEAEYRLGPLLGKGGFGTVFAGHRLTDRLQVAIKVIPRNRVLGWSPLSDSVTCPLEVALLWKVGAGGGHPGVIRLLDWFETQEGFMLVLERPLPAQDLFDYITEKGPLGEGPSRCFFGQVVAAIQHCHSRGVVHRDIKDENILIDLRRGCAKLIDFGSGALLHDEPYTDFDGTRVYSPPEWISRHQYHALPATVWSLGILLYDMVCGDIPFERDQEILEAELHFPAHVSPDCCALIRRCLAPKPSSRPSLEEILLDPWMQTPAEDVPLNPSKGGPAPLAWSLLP

Chain of Serine/threonine-protein kinase D3 (O94806 whole entry): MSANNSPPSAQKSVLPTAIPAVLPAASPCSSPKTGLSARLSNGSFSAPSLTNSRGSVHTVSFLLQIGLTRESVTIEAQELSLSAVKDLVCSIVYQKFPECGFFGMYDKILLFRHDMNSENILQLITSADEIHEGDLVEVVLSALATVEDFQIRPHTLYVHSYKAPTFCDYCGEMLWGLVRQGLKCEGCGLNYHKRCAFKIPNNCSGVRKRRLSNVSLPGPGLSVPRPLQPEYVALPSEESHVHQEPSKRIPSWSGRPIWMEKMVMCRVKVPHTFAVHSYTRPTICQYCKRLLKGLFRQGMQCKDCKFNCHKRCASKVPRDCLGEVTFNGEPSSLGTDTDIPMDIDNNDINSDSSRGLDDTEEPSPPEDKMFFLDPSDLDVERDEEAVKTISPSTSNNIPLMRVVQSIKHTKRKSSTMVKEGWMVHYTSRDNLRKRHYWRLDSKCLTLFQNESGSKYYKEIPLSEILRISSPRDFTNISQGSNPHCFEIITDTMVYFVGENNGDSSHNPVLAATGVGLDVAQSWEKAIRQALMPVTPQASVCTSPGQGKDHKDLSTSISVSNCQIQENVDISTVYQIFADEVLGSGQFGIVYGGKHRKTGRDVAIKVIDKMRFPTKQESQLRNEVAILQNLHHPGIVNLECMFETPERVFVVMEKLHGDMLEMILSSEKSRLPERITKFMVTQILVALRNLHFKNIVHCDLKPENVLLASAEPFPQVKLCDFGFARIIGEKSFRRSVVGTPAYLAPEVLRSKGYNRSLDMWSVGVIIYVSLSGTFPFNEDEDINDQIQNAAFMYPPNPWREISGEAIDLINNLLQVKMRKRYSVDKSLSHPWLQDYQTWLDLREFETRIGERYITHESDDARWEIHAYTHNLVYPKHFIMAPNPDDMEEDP
Chain of Serine/threonine-protein kinase D2 (Q9BZL6 whole entry): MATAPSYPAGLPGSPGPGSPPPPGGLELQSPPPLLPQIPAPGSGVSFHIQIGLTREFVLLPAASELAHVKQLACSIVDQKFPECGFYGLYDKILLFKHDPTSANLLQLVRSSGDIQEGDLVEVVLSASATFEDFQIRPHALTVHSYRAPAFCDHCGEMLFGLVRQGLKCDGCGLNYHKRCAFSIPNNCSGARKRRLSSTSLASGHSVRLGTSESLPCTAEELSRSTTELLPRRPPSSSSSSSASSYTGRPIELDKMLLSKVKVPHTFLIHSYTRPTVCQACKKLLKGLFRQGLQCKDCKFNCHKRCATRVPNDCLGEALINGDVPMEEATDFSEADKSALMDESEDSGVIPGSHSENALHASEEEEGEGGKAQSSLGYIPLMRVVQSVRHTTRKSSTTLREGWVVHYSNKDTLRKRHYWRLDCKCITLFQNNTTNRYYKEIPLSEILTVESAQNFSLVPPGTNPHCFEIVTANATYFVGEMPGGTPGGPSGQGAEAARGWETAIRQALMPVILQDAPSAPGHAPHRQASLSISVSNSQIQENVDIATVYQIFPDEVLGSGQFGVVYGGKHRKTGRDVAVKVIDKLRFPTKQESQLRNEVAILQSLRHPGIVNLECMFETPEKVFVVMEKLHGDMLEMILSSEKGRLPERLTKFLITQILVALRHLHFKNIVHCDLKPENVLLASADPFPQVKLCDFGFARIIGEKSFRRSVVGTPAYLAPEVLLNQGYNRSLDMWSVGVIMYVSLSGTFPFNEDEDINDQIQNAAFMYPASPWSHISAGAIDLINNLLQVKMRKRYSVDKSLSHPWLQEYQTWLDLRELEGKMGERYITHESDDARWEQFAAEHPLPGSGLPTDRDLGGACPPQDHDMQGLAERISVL
Chain of Melanocortin receptor 4 (P32245 whole entry): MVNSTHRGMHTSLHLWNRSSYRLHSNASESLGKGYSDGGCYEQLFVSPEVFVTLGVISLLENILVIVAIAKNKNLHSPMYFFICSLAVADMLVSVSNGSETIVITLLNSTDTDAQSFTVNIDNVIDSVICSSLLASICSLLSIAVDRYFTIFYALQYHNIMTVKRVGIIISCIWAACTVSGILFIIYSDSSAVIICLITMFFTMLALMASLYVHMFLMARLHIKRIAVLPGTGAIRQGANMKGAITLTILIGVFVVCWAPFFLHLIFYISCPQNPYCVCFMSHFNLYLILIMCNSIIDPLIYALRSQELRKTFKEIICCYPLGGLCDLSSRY
Chain of Dual specificity protein kinase CLK2 (P49760 whole entry): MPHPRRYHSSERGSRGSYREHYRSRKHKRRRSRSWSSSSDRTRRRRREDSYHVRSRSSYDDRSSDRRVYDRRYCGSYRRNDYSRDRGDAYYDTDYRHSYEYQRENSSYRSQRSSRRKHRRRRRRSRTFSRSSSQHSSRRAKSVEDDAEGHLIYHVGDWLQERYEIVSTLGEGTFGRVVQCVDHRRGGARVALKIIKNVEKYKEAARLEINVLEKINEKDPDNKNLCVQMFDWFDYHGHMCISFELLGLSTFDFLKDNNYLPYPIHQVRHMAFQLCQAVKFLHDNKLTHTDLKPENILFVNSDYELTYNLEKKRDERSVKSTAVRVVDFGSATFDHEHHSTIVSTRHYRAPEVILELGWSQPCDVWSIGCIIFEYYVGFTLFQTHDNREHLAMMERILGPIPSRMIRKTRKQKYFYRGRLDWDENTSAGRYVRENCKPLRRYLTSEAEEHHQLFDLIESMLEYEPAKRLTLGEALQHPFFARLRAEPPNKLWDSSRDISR

With CC(C)CCN=C(S)Nc1ccc([N+](=O)[O-])cc1 the IC50 [1] was 9.34 µM (active), the IC50 [2] was > 50 µM (not active) and the IC50 [3] was 8.43 µM (active).
With C[S+]([O-])c1nc(-c2ccc(Br)cc2)cc(-c2ccccc2)c1C#N (stereo not given) the EC50 (BJ [4]) was 5.13 µM (active), the EC50 (BJ [5]) was 2.41 µM (active) and the IC50 [6] was > 64.6 µM (inactive). The IC50 (Melanocortin receptor 4) was 1.28 µM (active), the AC50 [7] was 25.1 µM (active) and the EC50 (BJ [8]) was 3.04 µM (active). For the same compound, the AC50 [9] was 5.21 µM (active), the EC50 [10] was 5.38 µM (active) and the EC50 [11] was 2.91 µM (active). For the same compound, the EC50 [12] was 3.41 µM (active), the EC50 [13] was 2.18 µM (active) and the EC50 [14] was 7.72 µM (active). The AC50 [15] was 19.8 µM (active), the AC50 [16] was 11.2 µM (active) and the AC50 [17] was 3.25 µM (active). For the same compound, the EC50 [18] was 1.78 µM (active) and the AC50 [19] was 7.73 µM (active).
With Cn1ccc2c(-c3ccccc3F)nc(N(C(N)=O)c3c(F)cccc3F)nc21 the Ki [20] was 3.16 µM (active), the Ki [21] was 3.16 µM (active) and the Ki [22] was 7.94 µM (active). For the same compound, the Ki [23] was 2 µM (active) and the Ki [24] was 1.26 µM (active).
